Test results taken from ChEMBL document CHEMBL5537161, “Structure-Guided Design, Synthesis, and Antivirulence Assessment of Covalent Staphylococcus aureus Sortase A Inhibitors” (J Med Chem, 2024).
≈ marks a conversion by molar mass, not a printed value.

Columns and labels:
Sortase A [1] = target: T1, Sortase A (Staphylococcus aureus, UniProt Q9S446, N24DEL); test: Inhibition of Staphylococcus aureus sortase A N24 deletion mutant using Abz-LPATG-Dnp as substrate preincubated for 20 mins followed by substrate addition by FRET assay
Staphylococcus aureus = test: Bactericidal activity against Staphylococcus aureus Newman assessed as reduction in bacterial growth incubated for 16 to 18 hrs; type: functional; conditions: time 16-18 hrs
Sortase A [2] = target: T1, Sortase A; test: Inhibition of Staphylococcus aureus Sortase A N24 deletion mutant transpeptidation using IsdA64-323 as substrate preincubated for 20 mins followed by substrate addition and measured after 1.5 hrs by SDS-PAGE analysis

SMILES	IC50 (Sortase A [1])	MIC (Staphylococcus aureus)	IC50 (Sortase A [2])
O=C1NC(=O)C(=C/C=C/c2cc(Cl)cc(Cl)c2)C(=O)N1	2 µM	64 µg/mL (≈ 206 µM)	
CC(C)c1ccc(/C=C/C=C2C(=O)NC(=O)NC2=O)cc1	1.8 µM	32 µg/mL (≈ 113 µM)	
O=C1NC(=O)C(=C/C=C/c2ccc(OCc3ccc(Cl)cc3)cc2)C(=O)N1	2.5 µM	> 128 µg/mL	
O=C1NC(=O)C(=C/C=C/c2ccc(Cl)c(Cl)c2)C(=O)N1	1 µM	32 µg/mL (≈ 103 µM)	
COc1ccc(C=C2C(=O)NC(=O)NC2=O)cc1	> 50 µM	> 128 µg/mL	
COC(=O)c1ccc(COc2ccc(/C=C/C=C3C(=O)NC(=O)NC3=O)cc2)cc1	> 50 µM	> 128 µg/mL	
COc1ccc(/C=C/C=C2C(=O)NC(=S)NC2=O)cc1	2.8 µM	> 128 µg/mL	
CSCC[C@H](NC(=O)OCc1ccccc1)C(=O)Oc1ccc(/C=C/C=C2C(=O)NC(=O)NC2=O)cc1	6.9 µM	128 µg/mL (≈ 244 µM)	
O=C1NC(=O)C(=CNCc2ccc(Br)cc2)C(=O)N1	> 50 µM	> 128 µg/mL	
COc1cccc(/C=C/C=C2C(=O)NC(=O)NC2=O)c1	2.1 µM	128 µg/mL (≈ 470 µM)	
O=C1NC(=O)C(=C/C=C/c2ccc(Br)cc2)C(=O)N1	0.7 µM	64 µg/mL (≈ 199 µM)	9 µM
O=C1NC(=O)C(=C/C=C/c2ccc(OCc3ccsc3)cc2)C(=O)N1	0.7 µM	> 128 µg/mL	
CCCOc1ccc(/C=C/C=C2C(=O)NC(=O)NC2=O)cc1	0.7 µM	> 128 µg/mL	8.1 µM
O=C1NC(=O)C(=Cc2ccc(-c3ccc(Br)cc3)o2)C(=O)N1	> 50 µM	64 µg/mL (≈ 177 µM)	
O=C1NC(=O)C(=C/C=C/c2ccc(OCc3ccc([N+](=O)[O-])cc3)cc2)C(=O)N1	1.3 µM	> 128 µg/mL	
O=C1NC(=O)C(=C/C=C/c2ccc(OC(=O)[C@H](CO)NC(=O)OCc3ccccc3)cc2)C(=O)N1	2.5 µM	> 128 µg/mL	
COc1ccc(/C=C/C=C2C(=O)NC(=O)NC2=O)cn1	2.3 µM	> 128 µg/mL	
O=C1NC(=O)C(=C/C=C/c2ccc(OCc3ccc(C(F)(F)F)cc3)cc2)C(=O)N1	6.5 µM	> 128 µg/mL	
COc1ccc(/C(C#N)=C/C=C2C(=O)NC(=O)NC2=O)cc1	4.7 µM	128 µg/mL (≈ 431 µM)	
COC(=O)c1ccc(/C=C/C=C2C(=O)NC(=O)NC2=O)cc1	2.2 µM	> 128 µg/mL	
CC(C)CCC(=O)Oc1ccc(/C=C/C=C2C(=O)NC(=O)NC2=O)cc1	1.5 µM	128 µg/mL (≈ 359 µM)	
O=C1NC(=O)C(=C/C=C/c2ccc(OCC(=O)c3ccco3)cc2)C(=O)N1	0.8 µM	> 128 µg/mL	24.6 µM
CCCCc1ccc(COc2ccc(/C=C/C=C3C(=O)NC(=O)NC3=O)cc2)cc1	> 50 µM	> 128 µg/mL	
COc1ccc(COc2ccc(/C=C/C=C3C(=O)NC(=O)NC3=O)cc2)cc1	1.6 µM	> 128 µg/mL	
CC(=O)Oc1ccc(COc2ccc(/C=C/C=C3C(=O)NC(=O)NC3=O)cc2)cc1	0.8 µM	> 128 µg/mL	16.1 µM
O=C1NC(=O)C(=C/C=C/c2ccc(OCc3ccncc3)cc2)C(=O)N1	> 50 µM	> 128 µg/mL	
O=C1NC(=O)C(=C/C=C/c2ccc(OCC(=O)c3ccc[nH]3)cc2)C(=O)N1	0.5 µM	> 128 µg/mL	15.3 µM
COc1ccc(/C=C/C=C2C(=O)N(C)C(=S)N(C)C2=O)cc1	> 50 µM	> 128 µg/mL	
